# Assay: Bromphenol Blue (BPB) Extraction Method, spectrophotometric at 595 nm (modified CTM 0824), on treated fabric
# Format: physicochemical
# Settings: for % EXTRACTION CHANGE / EXTRACTION CHANGE / % BPB Extraction (change on boiling): boiled vs not boiled; for Boiling Durability - % BPB Extraction: Boil 30 min., Table XIV; for Strike Rate - % BPB Extraction: No Boil, Table XIII; for Boiled in H20 % Extraction / Change % Extraction / No Boil % Extraction: Table XI
smiles,measurement,setting,value
"CCCCCCCCCCCCCCCCCC[N+](C)(C)CCC[Si](OC)(OC)OC.[Cl-] [AMT, N, N-dimethyl-N-Octadecyl-3-(trimethoxysilyl)propanaminium chloride]",% EXTRACTION CHANGE,"NYLON, Table IX",−66%
same,EXTRACTION CHANGE,"NYLON, Table VI",−71%
same,% EXTRACTION CHANGE,"NYLON, Table VII",−69%
same,% EXTRACTION CHANGE,"NYLON, Table XV",−59%
same,% EXTRACTION CHANGE,"NYLON, Table XVII",−54%
same,% BPB EXTRACTION @ 595 nm,"NYLON, boiled, Table VII",18%
same,% Extraction @ 595 nm,"NYLON, not boiled, Table I",82%
same,% BPB EXTRACTION @ 595 nm,"NYLON, not boiled, Table III",77%
same,% Extraction @ 595 nm,"NYLON, not boiled, Table IV",70%
same,% Extraction @ 595 nm,"NYLON, not boiled, Table VI",82%
same,% BPB EXTRACTION @ 595 nm,"NYLON, not boiled, Table VII",87%
same,% BPB EXTRACTION @ 595 nm,"NYLON, not boiled, oven dried 130° C. 5 minutes, Table XV",89%
same,Boiling Durability - % BPB Extraction,Nylon,14.42%
same,Boiling Durability - % BPB Extraction,"Nylon, treatment at pH = 11",17.83%
same,Boiling Durability - % BPB Extraction,PET Staple,6.82%
same,Boiling Durability - % BPB Extraction,"PET Staple, treatment at pH = 11",37.6%
same,Strike Rate - % BPB Extraction,"PET Staple, 0.25 grams of fabric",17.36%
same,Boiling Durability - % BPB Extraction,"PET, treatment at pH = 11",14.38%
same,Strike Rate - % BPB Extraction,"PET, 0.25 grams of fabric",4.98%
same,% Extraction @ 595 nm,"PET, boiled 30 minutes, Table I",18%
same,% BPB EXTRACTION @ 595 nm,"PET, boiled 30 minutes, Table III",20%
same,% Extraction @ 595 nm,"PET, boiled 30 minutes, Table VI",26%
same,Boiling Durability % BPB EXTRACTION @ 595 nm,"PET, boiled 30 minutes, Table XVII",19%
same,% BPB Extraction (change on boiling),"PET, Table I",−71%
same,% EXTRACTION CHANGE,"PET, Table III",−74%
same,% EXTRACTION CHANGE,"PET, Table IX",−73%
same,EXTRACTION CHANGE,"PET, Table VI",−63%
same,% EXTRACTION CHANGE,"PET, Table VII",−72%
same,% EXTRACTION CHANGE,"PET, Table XV",−50%
same,% BPB EXTRACTION @ 595 nm,"PET, boiled, Table IX",14%
same,% BPB EXTRACTION @ 595 nm,"PET, boiled, Table VII",91%
same,% Extraction @ 595 nm,"PET, not boiled, Table I",89%
same,% BPB EXTRACTION @ 595 nm,"PET, not boiled, Table IX",87%
same,% Extraction @ 595 nm,"PET, not boiled, Table VI",89%
same,% BPB EXTRACTION @ 595 nm,"PET, not boiled, Table VII",93%
same,Boiling Durability % BPB EXTRACTION @ 595 nm,"PET, not boiled, Table XVII",83%
same,% BPB EXTRACTION @ 595 nm,"PET, not boiled, oven dried 130° C. 5 minutes, Table XV",86%
same,% BPB EXTRACTION @ 595 nm,"PPNW, boiled 30 minutes, Table XV",45%
same,Boiling Durability % BPB EXTRACTION @ 595 nm,"PPNW, boiled 30 minutes, Table XVII",37%
same,% EXTRACTION CHANGE,"PPNW, Table XV",−40%
same,% EXTRACTION CHANGE,"PPNW, Table XVII",−40%
same,Boiling Durability % BPB EXTRACTION @ 595 nm,"PPNW, not boiled, Table XVII",77%
same,% BPB EXTRACTION @ 595 nm,"PPNW, not boiled, oven dried 130° C. 5 minutes, Table XV",85%
same,% Extraction @ 595 nm,"RAYON, boiled 30 minutes, Table I",35%
same,% BPB EXTRACTION @ 595 nm,"RAYON, boiled 30 minutes, Table III",50%
same,% Extraction @ 595 nm,"RAYON, boiled 30 minutes, Table VI",44%
same,% BPB Extraction (change on boiling),"RAYON, Table I",−55%
same,% EXTRACTION CHANGE,"RAYON, Table III",−44%
same,% EXTRACTION CHANGE,"RAYON, Table IX",−40%
same,EXTRACTION CHANGE,"RAYON, Table VI",−50%
same,% EXTRACTION CHANGE,"RAYON, Table VII",−50%
same,% BPB EXTRACTION @ 595 nm,"RAYON, boiled, Table IX",52%
same,% BPB EXTRACTION @ 595 nm,"RAYON, boiled, Table VII",42%
same,% Extraction @ 595 nm,"RAYON, not boiled, Table I",90%
same,% BPB EXTRACTION @ 595 nm,"RAYON, not boiled, Table III",94%
same,% BPB EXTRACTION @ 595 nm,"RAYON, not boiled, Table IX",92%
same,% Extraction @ 595 nm,"RAYON, not boiled, Table VI",94%
same,% BPB EXTRACTION @ 595 nm,"RAYON, not boiled, Table VII",92%
same,Boiling Durability - % BPB Extraction,Rayon,9.88%
same,Boiling Durability - % BPB Extraction,"Rayon, treatment at pH = 11",21.36%
same,Strike Rate - % BPB Extraction,"Rayon, treatment at pH = 11",19.5%
same,Boiled in H20 % Extraction,cure: 130° C. for 5 Min,21%
same,Change % Extraction,cure: 130° C. for 5 Min,−36%
same,No Boil % Extraction,cure: 130° C. for 5 Min,57%
same,Boiled in H20 % Extraction,cure: Air Dried,21%
same,Change % Extraction,cure: Air Dried,−46%
same,No Boil % Extraction,cure: Air Dried,67%
